# Measurements: patent US20220298115A1, “SMALL MOLECULE INHIBITORS OF ACETYL COENZYME A SYNTHETASE SHORT CHAIN 2 (ACSS2)” (Curadev Pharma Pvt. Ltd., priority 2019, published 2022)
# Tests used:
# [1] = system: [14C] acetate incorporation in macromolecules, BT474 cells; assay: Cell based [14C] acetate incorporation assay; conditions: Homo sapiens, BT-474, 3 h at 37° C., read-out: Cellular Activity (IC50 range)
# Protocol: Cell Based [^14C] Acetate Incorporation Assay
# In the cellular assay, ACSS2 inhibitors were screened against [^14C] acetate incorporation in macromolecules. 4×10^4 BT474 cells were plated in 96 well plates in growth media composed of DMEM & 10% FBS and incubated overnight in a 37° C., 5% CO2 incubator. The following day the cells were washed in HBSS and the assay was performed in 100 μl of HBSS. 50 μl of 4× compound in 4% DMSO was added to the cells and preincubated for 10 min. at 37° C. 50 μl of acetate solution (0.1 μCi ^14C acetate+10 μM ^12C acetate) was added to each well of the plate and incubated for 3 h in a 37° C., 5% CO2 incubator. Following incubation, cells were harvested with water on polyethylene imine (PEI) presoaked GF/C filtermat, air dried and radioactive count were recorded in Trilux micro beta Liquid Scintillation Counter (PerkinElmer).
# human ACSS2 = biological target: T1, human ACSS2 (Homo sapiens, UniProt Q9NR19); assay: ACSS2 enzyme assay (acetyl-CoA formation, LC-MS/MS); format: biochemical; conditions: cytosolic fraction of BT474 cells as ACSS2 source; 100 μM acetate, CoA and ATP; 2 h at 25° C.; read-out: Enzyme Activity (IC50 range)
# T1 construct: The cytosolic fraction of BT474 cells was used as a source of the ACSS2 enzyme; endogenous in cells; host or cells: BT474 cells (cytosolic fraction)
# Protocol: Novel compounds were screened in a human ACSS2 enzyme assay. Briefly, the ACSS2 enzyme reaction was monitored by directly measuring acetyl-CoA formation. The cytosolic fraction of BT474 cells was used as a source of the ACSS2 enzyme. A short protocol for this assay is provided below.
# Preparation of Cytosolic Fraction from BT474 Cells
# 9×10^6 cells were harvested by trypsinization followed by centrifugation. The cell pellet was washed with PBS and dissolved in 500 μl STM buffer (50 mM Tris-HCl pH7.4, 250 mM sucrose, 5 mM MgCl2 & protease-phosphatase inhibitor cocktail) and homogenized at 600-1000 rpm for 1 min. on ice followed by incubation for 30 min. with intermittent vortexing. Supernatant was collected by centrifugation at 800 g for 15 min. at 4° C. Cytosolic fraction was prepared by further centrifugation of the supernatant at 12000 g for 15 min. at 4° C. Total protein content of the cytosolic fraction was estimated & diluted to 1 mg/ml concentration in storage buffer (25 mM Tris-HCl pH7.4, 1 mM MgCl2, 1 mM DTT & 10% glycerol) and stored at −80° C. for further use.
# 100 ng of cytosolic fraction in buffer composed of 25 mM Tris-HCl pH7.4 1 mM MgCl2, 1 mM DTT & 0.05% Tween20 was preincubated with desired concentrations of novel compounds for 5 min. maintaining 1% DMSO. Reaction was started with addition of substrate mix (100 μM of acetate, CoA and ATP) and incubated for 2 h at 25° C. with constant shaking at 500 rpm. Post incubation the reaction was terminated by addition of 10% TCA followed by 5 fold dilution in water. The reaction mixture was centrifuged at 800 g for 10 min. at RT and acetyl-CoA detected in supernatant by LC-MS/MS (QTrap5500 ABSCIEX).
# T1 sequence (Q9NR19 whole entry): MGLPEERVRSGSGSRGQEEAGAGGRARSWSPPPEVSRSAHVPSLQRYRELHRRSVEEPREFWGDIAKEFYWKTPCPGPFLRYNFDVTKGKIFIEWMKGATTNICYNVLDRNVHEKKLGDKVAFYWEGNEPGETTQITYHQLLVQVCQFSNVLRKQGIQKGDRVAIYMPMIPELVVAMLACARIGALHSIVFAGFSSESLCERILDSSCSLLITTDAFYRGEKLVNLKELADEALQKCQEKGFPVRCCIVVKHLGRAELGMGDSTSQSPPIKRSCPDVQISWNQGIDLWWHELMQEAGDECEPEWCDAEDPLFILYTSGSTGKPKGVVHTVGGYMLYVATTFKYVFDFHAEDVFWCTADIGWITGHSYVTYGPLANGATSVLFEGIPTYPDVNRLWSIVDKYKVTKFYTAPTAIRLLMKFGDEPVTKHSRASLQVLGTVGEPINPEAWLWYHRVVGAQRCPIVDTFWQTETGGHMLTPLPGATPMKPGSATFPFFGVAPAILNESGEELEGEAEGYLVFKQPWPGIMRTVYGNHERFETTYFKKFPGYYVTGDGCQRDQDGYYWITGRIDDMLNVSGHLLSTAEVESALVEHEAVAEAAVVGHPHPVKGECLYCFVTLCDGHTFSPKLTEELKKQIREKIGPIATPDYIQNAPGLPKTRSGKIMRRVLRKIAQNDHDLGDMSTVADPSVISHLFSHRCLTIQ
IC50 [1],IC50 (human ACSS2),Compound
< 100 nM,< 100 nM,"CCC(O)CNC(=O)Nc1ccc2nc(-c3ccccc3)c(-c3ccccc3)c(C(=O)NC)c2c1 (stereo not shown) [Example 62, 6-(3-(2-hydroxybutyl)ureido)-N-methyl-2,3-diphenylquino-line-4-carboxamide]"
< 100 nM,< 100 nM,"CCC(O)CNC(=O)Nc1ccc2nc(-c3ccccc3)c(-c3ccccc3)c(C(=O)N(C)C)c2c1 (stereo not shown) [Example 63, 6-(3-(2-hydroxybutyl)ureido)-N,N-dimethyl-2,3-diphenylquino-line-4-carboxamide]"
≤ 1000 nM,< 100 nM,"CCC(O)CNC(=O)Nc1ccc2nc(C)c(-c3ccccc3)c(C(N)=O)c2c1 (stereo not shown) [Example 66, 6-(3-(2-hydroxybutyl)ureido)-2-methyl-3-phenylquinoline-4-carboxamide]"
< 100 nM,< 100 nM,"CC[C@H](O)CNC(=O)Nc1ccc2nc(-c3ccccc3)c(-c3ccccc3F)cc2c1 [Example 67, (S)-1-(3-(2-fluorophenyl)-2-phenylquinolin-6-yl)-3-(2-hydroxybutyl) urea]"
> 10000 nM,≤ 1000 nM,"CCC(O)CNC(=O)Nc1ccc2ncc(-c3ccccc3)c(C(N)=O)c2c1 (stereo not shown) [Example 71, 6-(3-(2-hydroxybutyl)ureido)-3-phenylquinoline-4-carboxamide]"
< 100 nM,< 100 nM,"CC[C@@H](O)CNC(=O)Nc1ccc2nc(C)c(-c3ccccc3)cc2c1 [Example 72, (R)-1-(2-Hydroxybutyl)-3-(2-methyl-3-phenylquinolin-6-yl)urea]"
≤ 1000 nM,< 100 nM,"CCC(O)CNC(=O)Nc1ccc2nc(C)c(-c3ccccc3F)c(C(N)=O)c2c1 (stereo not shown) [Example 73, 3-(2-fluorophenyl)-6-(3-(2-hydroxybutyl)ureido)-2-methylquinoline-4-carboxamide]"
< 100 nM,< 100 nM,"CCC(O)CNC(=O)Nc1ccc2nc(C)c(-c3ccccc3F)cc2c1 (stereo not shown) [Example 75, 1-(3-(2-fluorophenyl)-2-methylquinolin-6-yl)-3-(2-hydroxybutyl) urea]"
< 100 nM,≤ 1000 nM,"CCCCNC(=O)Nc1ccc2nc(C)c(-c3ccccc3)cc2c1 [Example 76, 1-butyl-3-(2-methyl-3-phenylquinolin-6-yl)urea]"
≤ 1000 nM,< 100 nM,"CCC(CNC(=O)Nc1ccc2nc(C)c(-c3ccccc3)cc2c1)OC (stereo not shown) [Example 77, 1-(2-methoxybutyl)-3-(2-methyl-3-phenylquinolin-6-yl)urea]"
≤ 1000 nM,< 100 nM,"CCC(O)CNC(=O)Nc1ccc2nc(C)c(-c3cccnc3)cc2c1 (stereo not shown) [Example 79, 1-(2-hydroxybutyl)-3-(2-methyl-3-(pyridin-3-yl)quinolin-6-yl)urea]"
< 100 nM,< 100 nM,"CC[C@@H](O)CNC(=O)Nc1ccc2nc(C)c(-c3ccccc3C)cc2c1 [Example 83, (R)-1-(2-hydroxybutyl)-3-(2-methyl-3-(o-tolyl)quinolin-6-yl)urea]"
< 100 nM,< 100 nM,"CCC(O)CNC(=O)Nc1ccc2nc(C)c(-c3ccccc3)cc2c1C (stereo not shown) [Example 85, 1-(2,5-dimethyl-3-phenylquinolin-6-yl)-3-(2-hydroxybutyl) urea]"
< 100 nM,< 100 nM,"CCC(O)CNC(=O)Nc1ccc2nc(C)c(-c3ccccc3)cc2c1C1CC1 (stereo not shown) [Example 86, 1-(5-cyclopropyl-2-methyl-3-phenylquinolin-6-yl)-3-(2-hydroxybutyl) urea]"
< 100 nM,< 100 nM,"CCC(O)CNC(=O)Nc1ccc2nc(C)c(-c3ccccc3)cc2c1Br (stereo not shown) [Example 87, 1-(5-bromo-2-methyl-3-phenylquinolin-6-yl)-3-(2-hydroxybutyl) urea]"
> 10000 nM,≤ 10000 nM,"CCC(O)CNC(=O)Nc1ccc2nc(C(F)(F)F)c(-c3ccccc3)cc2c1 (stereo not shown) [Example 88, 1-(2-hydroxybutyl)-3-(3-phenyl-2-(trifluorometh-yl)quinolin-6-yl)urea]"
≤ 1000 nM,≤ 1000 nM,"CC[C@@H](O)CNC(=O)Nc1cc2cc(-c3ccccc3)c(-c3ccccc3)nc2cc1F [Example 90, (R)-1-(7-fluoro-2,3-diphenylquinolin-6-yl)-3-(2-hydroxybutyl) urea]"
< 100 nM,< 100 nM,"CC[C@@H](O)CNC(=O)Nc1ccc2nc(-c3ccccc3)c(-c3ccccc3)c(NC(=O)C3CC3)c2c1 [Example 92, (R)-N-(6-(3-(2-hydroxybutyl)ureido)-2,3-diphenylquinolin-4-yl)cyclopropane-carboxamide]"

# Second part, the compound before the results:
Compound,IC50 [1],IC50 (human ACSS2)
"C#Cc1nc2ccc(NC(=O)NCC(O)CC)cc2cc1-c1ccccc1 (stereo not shown) [Example 60, 1-(2-ethynyl-3-phenylquinolin-6-yl)-3-(2-hydroxybutyl) urea]",< 100 nM,< 100 nM
"CCc1nc2ccc(NC(=O)NCC(O)CC)cc2cc1-c1ccccc1 (stereo not shown) [Example 61, 1-(2-ethyl-3-phenylquinolin-6-yl)-3-(2-hydroxybutyl) urea]",< 100 nM,< 100 nM
"CCC(O)CNC(=O)Nc1ccc2nc(-c3ccccc3)c(-c3ccccc3)c(C(=O)NC3CC3)c2c1 (stereo not shown) [Example 64, N-cyclopropyl-6-(3-(2-hydroxybutyl)ureido)-2,3-diphenylquino-line-4-carboxamide]",< 100 nM,< 100 nM
"CCC(O)CNC(=O)Nc1ccc2nc(-c3ccccc3)c(-c3ccccc3)c(C(=O)O)c2c1 (stereo not shown) [Example 65, 6-(3-(2-hydroxybutyl)ureido)-2,3-diphenylquino-line-4-carboxylic acid]",≤ 10000 nM,< 100 nM
"CCC(O)CNC(=O)Nc1ccc2nc(C)c(C)c(C(N)=O)c2c1 (stereo not shown) [Example 69, 6-(3-(2-hydroxybutyl)ureido)-2,3-dimethylquino-line-4-carboxamide]",> 10000 nM,≤ 10000 nM
"CCC(O)CNC(=O)Nc1ccc2nc(-c3ccccc3)c(-c3ccccc3)c(C#N)c2c1 (stereo not shown) [Example 70, 1-(4-cyano-2,3-diphenylquino-lin-6-yl)-3-(2-hydroxybutyl) urea]",< 100 nM,< 100 nM
"CCC(O)CNC(=O)Nc1ccc2nc(C)cc(C(N)=O)c2c1 (stereo not shown) [Example 74, 6-(3-(2-hydroxybutyl)ureido)-2-methylquinoline-4-carboxamide]",> 10000 nM,≤ 10000 nM
"COCCNC(=O)Nc1ccc2nc(C)c(-c3ccccc3)cc2c1 [Example 78, 1-(2-methoxyethyl)-3-(2-methyl-3-phenylquinolin-6-yl)urea]",≤ 1000 nM,≤ 1000 nM
"CCC(O)CNC(=O)Nc1ccc2nc(C)c(-c3ccccc3C)cc2c1 (stereo not shown) [Example 80, 1-(2-hydroxybutyl)-3-(2-methyl-3-(o-tolyl)quinolin-6-yl)urea]",< 100 nM,< 100 nM
"CCC(O)CNC(=O)Nc1ccc2nc(C)c(-c3ccccc3Cl)cc2c1 (stereo not shown) [Example 81, 1-(3-(2-chlorophenyl)-2-methylquinolin-6-yl)-3-(2-hydroxybutyl) urea]",< 100 nM,< 100 nM
"CCC(O)CNC(=O)Nc1ccc2nc(C)c(-c3cnn(C)c3)cc2c1 (stereo not shown) [Example 82, 1-(2-hydroxybutyl)-3-(2-methyl-3-(1-methyl-1H-pyrazol-4-yl)quinolin-6-yl)urea]",> 10000 nM,≤ 1000 nM
"CCC(O)CNC(=O)Nc1ccc2nc(-c3ccccc3)c(-c3ccccc3)c(NC(C)=O)c2c1 (stereo not shown) [Example 84, N-(6-(3-(2-hydroxybutyl)ureido)-2,3-diphenylquinolin-4-yl)acetamide]",< 100 nM,< 100 nM
"CC[C@H](O)CNC(=O)Nc1ccc2nc(C)c(-c3ccccc3)cc2c1 [Example 89, (S)-1-(2-hydroxybutyl)-3-(2-methyl-3-phenylquinolin-6-yl)urea]",≤ 1000 nM,≤ 1000 nM
"CCC(O)CNC(=O)Nc1ccc2nc(-c3ccccc3)c(-c3ccccc3)c(N(C)C)c2c1 (stereo not shown) [Example 91, 1-(4-(dimethylamino)-2,3-diphenylquinolin-6-yl)-3-(2-hydroxybutyl) urea]",< 100 nM,< 100 nM
